According to paper PMC12406255, “Engineering Peptide Modulators for T‑Cell Migration by Structural Scaffold Matching” (Journal of Medicinal Chemistry, 2025):
Positions of bridges follow the written chain, without caps; N, C: chain ends. Non-standard residues stand in square brackets, D forms with d. Residues, ends and D or L forms follow the SMILES beside them. Nle = CCCC[C@H](N)C(=O)O

Experiments:
CD3+ lymphocytes = assay: cells; type: cell-based, human; conditions: for % Inhibition of cell migration compared to control, CD3+: normalized to untreated control, mean ± SEM of 4-6 experiments
Experimental: 1 Transwell-based migration assay to study lymphocyte transendothelial migration. (A) The general principle of the transwell migration assay is depicted. Endothelial cells (EC) are seeded in transwell inserts and are incubated for 2 days to form an EC monolayer. On the day before the assay, the ECs are cytokine-stimulated to induce the expression of adhesion molecules. In the migration assay, human peripheral blood mononuclear cells (PBMC) are placed into the donor compartment of the transwell setup. After 4 h of incubation time, the migrated cells are harvested from the receiver compartment, stained with fluorescent antibodies and counted using flow cytometry. (B) PBMCs were preincubated with S1P for 1.5 h and then transferred into the donor compartment on top of the EC monolayer. […] Data are shown as mean ± SD of 3 to 5 independent experiments.
Transwell migration assays were performed similarly as published previously. HMEC-1 cells were seeded at a density of 75,000 cells per well in transwell inserts. Three days after cell seeding, the medium was changed, and the cells were stimulated with 100 ng/mL TNF-α and 20 ng/mL IFN-γ for 16–18 h. On the day of the assay, cells were washed with migration medium (serum-free RPMI medium supplemented with 0.1% BSA) to remove residual cytokines and starved for at least 1 h at 37 °C in migration medium. PBMC were starved for at least 1.5 h in migration medium before addition to the EC. For S1P and lifitegrast-treated samples, the PBMC were preincubated for at least 1.5 h at 37 °C with the ligands before addition to the EC. Pepitem and other peptides were added onto the EC monolayer and preincubated for 15–30 min at 37 °C before the addition of the PBMC. 200,000 PBMC per well were added directly on top of the EC prestimulated with pepitem or other peptides to reach a final volume of 150 μL in the donor compartments. The receiver compartments of the wells were filled with 600 μL RPMI with 20% FBS. After 4 h of migration at 37 °C, the receiver compartment with the migrated cells was collected. The migrated cells were stained with the indicated antibodies: CD3-APC (clone: OKT3, lot: B400127), CD4-PE (clone: OKT4. lot: B379180), CD8-FITC (clone: HIT8a, lot: B370193) from Biolegend and CD3-VioGreen (clone: REA613, lot: 5240502518), CD45RO-FITC (clone: REA611, lot: 5240502519), CD4-PerCP-Vio700 (clone: REA623, lot: 5240506702), CXCR3 PE-Vio615 (clone: REA232, lot: 5240506722), CD196-APC (clone: REA190, lot: 5240506717), CD8-APC-Vio770 (clone: REA734, lot: 5240303993) and CD45RO-PEVio616 (clone: REA611, lot: 5231102514) from Miltenyi Biotec (Bergisch Gladbach, Germany) and counted using precision counting beads (Biolegend) on a CytoflexS flow cytometer (BeckmanCoulter). Data was analyzed using CytExpert (Version 2.4). T cells were gated as CD3^+ cells, T cell subsets were gated as CD4^+ (CD3^+, CD4^+), CD8^+ (CD3^+, CD8^+), memory CD4^+ (CD3^+, CD4^+, CD45RO^+), memory CD8^+ (CD3^+, CD8^+, CD45RO^+) and Th1 cells (CD3^+, CD4^+, CXCR3^+, CCR6^–).
Data were analyzed using GraphPad Prism software. EC50 values were calculated by three-parameter nonlinear regression analysis. For this, the data points were normalized to the number of migrated cells in untreated (buffer) control samples (100%), and the regression was fitted with the top constraint to 100 and the slope fixed to 1. Statistical significance is indicated in graphs as n.s. not significant, * p < 0.05; ** p < 0.01; *** p < 0.001. The statistical tests used are indicated in the respective figure captions.

Serum stability assay = type: in vitro ADME; conditions: human serum of healthy donors, lipids removed by centrifugation, 37 °C, peptide 30-60 μM from 10-fold stock in PBS, followed over 48 h, urea/TFA quench, analytical RP-HPLC peak area vs time 0, one-phase decay fit; mean ± SD, n = 2 (pepitem n = 5); read-out: Serum t 1/2 (converted)
Experimental: Stability of peptides in human serum was measured similarly to that previously described. In short, fresh blood from healthy donors was collected in serum collection tubes (Clot Activator Tube, Becton Dickinson, Plymouth, United Kingdom, […]) and incubated at 4 °C for 2 h to allow blood clotting. The serum was separated by centrifugation at 1000 × g for 10 min. To remove lipids from the serum, an additional centrifugation step was performed at 15,000 × g for 15 min at 4 °C, after which the serum was used for the stability assays. For this, the serum was prewarmed for 10 min at 37 °C before the addition of the test compounds. Peptides were prepared at a 10-fold concentration in PBS and diluted to a final concentration between 60 and 30 μM with the serum. The serum-peptide reaction mix was incubated at 37 °C, and 40 μL aliquots were taken at the indicated time points. To stop the reaction, samples were mixed with 40 μL of 6 M urea for 10 min on ice, followed by precipitation of serum proteins by the addition of 40 μL of 20% TFA and incubation for at least 10 min on ice. The precipitate was pelleted at 15,000 × g for 15 min, and 90 μL of the supernatant was freeze-dried. The dry material was resuspended in HPLC solvent A (0.1% TFA in ddH2O). Peptide quantification was performed using analytical HPLC. The remaining peptide relative to the starting point (time point 0) was calculated by peak integration to determine the area under the peak at the designated time points and further calculated in comparison to time point 0 min, which was set as 100%. To calculate the half-life of the peptides in human serum, data points were fitted with a one-phase decay equation.

CCCC[C@@H]1NC(=O)[C@H](C(C)C)NC(=O)[C@H](CCCCN)NC(=O)[C@@H](NC(=O)[C@H](CCC(N)=O)NC(=O)[C@H](CCC(=O)O)NC(C)=O)CSSC[C@@H](C(=O)N[C@@H](CCC(=O)O)C(=O)N[C@@H](CCCCN)C(N)=O)NC(=O)[C@H](CC(N)=O)NC(=O)[C@H](CC(=O)O)NC(=O)[C@H](CC(C)C)NC(=O)[C@@H]2CSSC[C@H](NC1=O)C(=O)N[C@@H](Cc1ccc(O)cc1)C(=O)N[C@@H](C)C(=O)N[C@@H](CCC(N)=O)C(=O)NCC(=O)N[C@@H](C)C(=O)N[C@@H](CCC(=O)O)C(=O)N[C@@H](CC(C)C)C(=O)N1CCC[C@H]1C(=O)N[C@@H](CCC(=O)O)C(=O)N[C@@H](CC(C)C)C(=O)N[C@@H](CC(C)C)C(=O)N[C@@H](CCCNC(=N)N)C(=O)N[C@@H](CCCNC(=N)N)C(=O)N2 [VhTI-pep 2] (Ac-EQCKV[Nle]CYAQGAELPELLRRCLDNCEK-NH2; disulfide 3-25, 7-21)
% Inhibition of cell migration compared to control, CD3+ (CD3+ lymphocytes; 0.1 μM): 28.7 ± 6.4%
% Inhibition of cell migration compared to control, CD3+ (CD3+ lymphocytes; 1 μM): 37.2 ± 6.8%
EC50 (CD3+ lymphocytes; EC monolayer preincubated with peptide 15-30 min, healthy-donor PBMC added, 4 h migration, flow cytometry, mean ± SD of 3 to 5 (VhTI-pep 2: 4) independent experiments, read-out: EC50, inhibition of CD3+ lymphocyte migration): 0.0106 ± 0.0165 µM
maximal effect of inhibition of cell migration, CD3+ lymphocytes (CD3+ lymphocytes; from the concentration-response experiment): 39.3 ± 8.7%
half-life (Serum stability assay): > 48 h
